Data set [1] addresses T1, 5-hydroxytryptamine receptor 3A (Homo sapiens) (UniProt P46098).
T1 sequence (whole entry): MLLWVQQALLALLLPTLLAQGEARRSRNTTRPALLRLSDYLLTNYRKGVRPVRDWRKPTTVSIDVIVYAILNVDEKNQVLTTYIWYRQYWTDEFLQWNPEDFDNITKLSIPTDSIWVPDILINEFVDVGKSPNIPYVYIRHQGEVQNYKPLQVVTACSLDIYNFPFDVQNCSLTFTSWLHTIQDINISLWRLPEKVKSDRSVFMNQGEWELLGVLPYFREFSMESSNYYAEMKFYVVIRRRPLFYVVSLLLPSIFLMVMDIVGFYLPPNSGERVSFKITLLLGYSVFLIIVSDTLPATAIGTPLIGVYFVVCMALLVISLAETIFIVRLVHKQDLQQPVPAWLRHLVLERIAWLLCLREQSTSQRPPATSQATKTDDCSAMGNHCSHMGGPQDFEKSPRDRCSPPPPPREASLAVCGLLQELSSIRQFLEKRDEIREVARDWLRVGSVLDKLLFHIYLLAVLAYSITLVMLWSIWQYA
Put plainly: 5-HT3 (h) CEREP ligand profiling. The following applies: Compound concentration 10.0 uM.

The target in data set [2] is Adenosine receptor A2a (Homo sapiens) (UniProt P29274). Put plainly: A2A (h) CEREP ligand profiling. To be noted: Compound concentration 10.0 uM.
Data set [3] concerns the target Angiotensin-converting enzyme (Homo sapiens) (UniProt P12821). The data set can be described thus: ACE (h) CEREP ligand profiling. To be noted: Compound concentration 10.0 uM.
For data set [4], the target named is Prostaglandin G/H synthase 2 (Homo sapiens) (UniProt P35354). Put plainly: COX2 (h) CEREP ligand profiling. The following applies: Compound concentration 10.0 uM.
For another data set, the target named is CYP2D6 (Homo sapiens, UniProt P10635). Put plainly: CYP2D6 inhibition CEREP ligand profiling. To be noted: compound concentration 10 uM.
Data set [5] addresses Endothelin receptor type B (Homo sapiens) (UniProt P24530). The data set can be described thus: ETB (h) CEREP ligand profiling. To be noted: Compound concentration 10.0 uM.
Data set [6] has as its target Vascular endothelial growth factor receptor 1 (Homo sapiens) (UniProt P17948). The data set can be described thus: FLT-1 kinase (h) (VEGFR1) CEREP ligand profiling. The following applies: Compound concentration 10.0 uM.
Data set [7] concerns the target T2, GABA-A receptor; anion channel (Homo sapiens) (UniProt P14867+P47870+P18507+P28472+P48169+Q99928+Q9UN88+P34903+O00591+O14764+Q8N1C3+P18505+P78334+P47869+P31644+Q16445). The data set can be described thus: GABAA BZD (central) CEREP ligand profiling. The class given is protein-complex assay. To be noted: Compound concentration 10.0 uM.
Data set [8] addresses T2, GABA-A receptor; anion channel (Homo sapiens). Put plainly: GABAA CEREP ligand profiling. It counts as protein-complex assay. The following applies: Compound concentration 10.0 uM.
Data set [9] concerns the target Glucocorticoid receptor (Homo sapiens) (UniProt P04150). Put plainly: GR (h) CEREP ligand profiling. The following applies: Compound concentration 10.0 uM.
Data set [10] has as its target Mu-type opioid receptor (Homo sapiens) (UniProt P35372). Put plainly: mu (h) (MOP) (agonist site) CEREP ligand profiling. To be noted: Compound concentration 10.0 uM.
Data set [11] concerns the target Glutamate [NMDA] receptor (Homo sapiens) (UniProt Q05586+Q12879+Q13224+O15399+O60391+Q14957+Q8TCU5). The data set can be described thus: NMDA CEREP ligand profiling. It counts as protein-complex assay. To be noted: Compound concentration 10.0 uM.
Data set [12] addresses Tyrosine 3-monooxygenase (Homo sapiens) (UniProt P07101). The data set can be described thus: TH CEREP ligand profiling. The following applies: Compound concentration 10.0 uM.
Data set [13] addresses Neuropeptide Y receptor type 1 (Homo sapiens) (UniProt P25929). Put plainly: Y1 (h) CEREP ligand profiling. To be noted: Compound concentration 10.0 uM.
In data set [14] the target is Mitogen-activated protein kinase kinase kinase 5 (Homo sapiens) (UniProt Q99683). To be noted: Compound concentration 1000.0 nM.
Data set [15] addresses Tyrosine-protein kinase Blk (Homo sapiens) (UniProt P51451). To be noted: Compound concentration 1000.0 nM.
Data set [16] deals with Cyclin-dependent kinase 2 (Homo sapiens) (UniProt P24941). The following applies: Compound concentration 1000.0 nM.
The target of data set [17] is Cyclin-dependent kinase 8 (Homo sapiens) (UniProt P49336). To be noted: Compound concentration 1000.0 nM.
The target of data set [18] is Dual specificity protein kinase CLK1 (Homo sapiens) (UniProt P49759). The following applies: Compound concentration 1000.0 nM.
Data set [19] concerns the target Ephrin type-A receptor 5 (Homo sapiens) (UniProt P54756). To be noted: Compound concentration 1000.0 nM.
In data set [20] the target is Tyrosine-protein kinase Fgr (Homo sapiens) (UniProt P09769). To be noted: Compound concentration 1000.0 nM.
Sequence of Tyrosine-protein kinase Fgr (Homo sapiens) (P09769 2-529 limits assumed): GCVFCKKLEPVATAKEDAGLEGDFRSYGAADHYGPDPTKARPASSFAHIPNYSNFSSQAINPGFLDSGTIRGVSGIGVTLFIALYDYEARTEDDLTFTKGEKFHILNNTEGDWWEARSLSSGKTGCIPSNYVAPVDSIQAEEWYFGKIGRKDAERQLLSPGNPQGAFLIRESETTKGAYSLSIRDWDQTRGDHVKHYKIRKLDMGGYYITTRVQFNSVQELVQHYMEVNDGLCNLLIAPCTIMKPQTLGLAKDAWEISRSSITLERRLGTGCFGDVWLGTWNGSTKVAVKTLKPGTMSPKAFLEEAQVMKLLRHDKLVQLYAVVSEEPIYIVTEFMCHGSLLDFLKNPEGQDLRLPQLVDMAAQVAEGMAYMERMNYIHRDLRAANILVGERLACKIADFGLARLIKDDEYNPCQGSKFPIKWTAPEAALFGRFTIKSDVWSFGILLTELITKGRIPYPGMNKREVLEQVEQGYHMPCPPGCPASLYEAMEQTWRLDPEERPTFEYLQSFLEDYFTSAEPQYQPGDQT
The target in data set [21] is Glycogen synthase kinase-3 alpha (Homo sapiens) (UniProt P49840). The following applies: Compound concentration 1000.0 nM.
The target of data set [22] is Insulin receptor (Homo sapiens) (UniProt P06213). To be noted: Compound concentration 1000.0 nM.
Data set [23] concerns Hepatocyte growth factor receptor (Homo sapiens), P08581 [Y1235D]. The following applies: Compound concentration 1000.0 nM.
The target in data set [24] is Mitogen-activated protein kinase kinase kinase 11 (Homo sapiens) (UniProt Q16584). To be noted: Compound concentration 1000.0 nM.
Data set [25] deals with Myosin-IIIb (Homo sapiens) (UniProt Q8WXR4). The following applies: Compound concentration 1000.0 nM.
Data set [26] addresses Mitogen-activated protein kinase 11 (Homo sapiens) (UniProt Q15759). To be noted: Compound concentration 1000.0 nM.
Data set [27] concerns the target Serine/threonine-protein kinase PAK 1 (Homo sapiens) (UniProt Q13153). To be noted: Compound concentration 1000.0 nM.
Data set [28] addresses Serine/threonine-protein kinase PAK 2 (Homo sapiens) (UniProt Q13177). To be noted: Compound concentration 1000.0 nM.
Data set [29] concerns the target Serine/threonine-protein kinase Sgk1 (Homo sapiens) (UniProt O00141). The following applies: Compound concentration 1000.0 nM.
The target in data set [30] is Serine/threonine-protein kinase 36 (Homo sapiens) (UniProt Q9NRP7). The following applies: Compound concentration 1000.0 nM.
For data set [31], the target named is STE20/SPS1-related proline-alanine-rich protein kinase (Homo sapiens) (UniProt Q9UEW8). To be noted: Compound concentration 1000.0 nM.
Data set [32] concerns the target Tyrosine-protein kinase receptor Tie-1 (Homo sapiens) (UniProt P35590). The following applies: Compound concentration 1000.0 nM.
Data set [33] has as its target Serine/threonine-protein kinase WNK2 (Homo sapiens) (UniProt Q9Y3S1). The following applies: Compound concentration 1000.0 nM.
The target in data set [34] is Serine/threonine-protein kinase 32A (Homo sapiens) (UniProt Q8WU08). To be noted: Compound concentration 1000.0 nM.
Sequence of Serine/threonine-protein kinase 32A (Homo sapiens) (Q8WU08 whole entry): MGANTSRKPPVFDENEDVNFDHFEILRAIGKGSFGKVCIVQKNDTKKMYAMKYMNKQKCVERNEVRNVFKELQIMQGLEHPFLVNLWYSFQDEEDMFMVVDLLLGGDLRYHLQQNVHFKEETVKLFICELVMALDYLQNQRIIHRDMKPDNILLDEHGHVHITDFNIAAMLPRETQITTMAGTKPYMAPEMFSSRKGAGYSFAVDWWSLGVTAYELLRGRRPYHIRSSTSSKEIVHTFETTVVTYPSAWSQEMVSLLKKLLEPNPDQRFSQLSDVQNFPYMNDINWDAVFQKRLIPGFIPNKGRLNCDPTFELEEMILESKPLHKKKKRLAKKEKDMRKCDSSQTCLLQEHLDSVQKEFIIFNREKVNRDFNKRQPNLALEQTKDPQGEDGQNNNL
Data set [35] has as its target 5-hydroxytryptamine receptor 5A (Homo sapiens) (UniProt P47898). To be noted: Compound concentration 10.0 uM.
Data set [36] has as its target 5-hydroxytryptamine receptor 7 (Homo sapiens) (UniProt P34969). The following applies: Compound concentration 10.0 uM.
Data set [37] concerns the target Mu-type opioid receptor (Homo sapiens) (UniProt P35372). The following applies: Compound concentration 10.0 uM.
For data set [38], the target named is Histamine H1 receptor (Homo sapiens) (UniProt P35367). To be noted: Compound concentration 10.0 uM.

Structures are written as SMILES.

Sequence of Mu-type opioid receptor (Homo sapiens) (P35372 whole entry): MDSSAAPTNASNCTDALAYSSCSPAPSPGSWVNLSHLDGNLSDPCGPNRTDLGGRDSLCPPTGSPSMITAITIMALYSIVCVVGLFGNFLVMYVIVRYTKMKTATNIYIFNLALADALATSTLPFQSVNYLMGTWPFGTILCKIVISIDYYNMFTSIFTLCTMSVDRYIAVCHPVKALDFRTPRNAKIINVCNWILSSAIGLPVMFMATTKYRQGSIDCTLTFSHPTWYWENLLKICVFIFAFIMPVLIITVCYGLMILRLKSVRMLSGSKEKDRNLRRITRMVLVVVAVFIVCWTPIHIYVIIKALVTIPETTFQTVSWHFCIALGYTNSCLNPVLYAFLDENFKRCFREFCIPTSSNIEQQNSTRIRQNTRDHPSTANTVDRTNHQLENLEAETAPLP
Sequence of Ephrin type-A receptor 5 (Homo sapiens) (P54756 whole entry): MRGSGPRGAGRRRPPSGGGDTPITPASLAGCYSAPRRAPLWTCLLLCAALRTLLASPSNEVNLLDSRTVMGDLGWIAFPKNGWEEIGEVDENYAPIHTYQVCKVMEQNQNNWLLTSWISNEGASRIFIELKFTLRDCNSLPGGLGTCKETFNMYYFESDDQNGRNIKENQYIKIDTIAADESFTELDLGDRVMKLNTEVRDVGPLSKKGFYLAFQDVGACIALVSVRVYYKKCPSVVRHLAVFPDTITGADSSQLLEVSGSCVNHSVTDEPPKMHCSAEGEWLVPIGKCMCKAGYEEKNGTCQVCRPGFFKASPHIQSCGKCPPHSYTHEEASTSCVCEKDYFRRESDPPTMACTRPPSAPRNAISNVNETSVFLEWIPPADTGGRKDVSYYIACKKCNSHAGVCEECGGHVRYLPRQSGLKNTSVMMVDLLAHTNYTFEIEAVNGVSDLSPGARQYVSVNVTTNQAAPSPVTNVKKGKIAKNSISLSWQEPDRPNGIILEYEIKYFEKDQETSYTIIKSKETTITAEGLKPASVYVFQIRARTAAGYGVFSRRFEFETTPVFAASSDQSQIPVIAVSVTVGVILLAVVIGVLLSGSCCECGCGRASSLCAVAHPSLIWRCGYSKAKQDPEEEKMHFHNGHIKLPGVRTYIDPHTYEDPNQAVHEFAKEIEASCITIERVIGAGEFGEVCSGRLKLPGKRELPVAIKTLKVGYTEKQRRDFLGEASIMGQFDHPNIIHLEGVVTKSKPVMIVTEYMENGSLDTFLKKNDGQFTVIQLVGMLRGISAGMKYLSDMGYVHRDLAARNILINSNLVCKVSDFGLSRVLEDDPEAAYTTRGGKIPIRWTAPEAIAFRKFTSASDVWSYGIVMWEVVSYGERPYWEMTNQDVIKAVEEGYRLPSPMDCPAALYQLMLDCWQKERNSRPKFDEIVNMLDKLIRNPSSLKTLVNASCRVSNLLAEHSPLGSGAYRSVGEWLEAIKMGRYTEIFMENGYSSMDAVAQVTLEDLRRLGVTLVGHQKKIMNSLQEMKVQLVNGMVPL
Sequence of Tyrosine 3-monooxygenase (Homo sapiens) (P07101 whole entry): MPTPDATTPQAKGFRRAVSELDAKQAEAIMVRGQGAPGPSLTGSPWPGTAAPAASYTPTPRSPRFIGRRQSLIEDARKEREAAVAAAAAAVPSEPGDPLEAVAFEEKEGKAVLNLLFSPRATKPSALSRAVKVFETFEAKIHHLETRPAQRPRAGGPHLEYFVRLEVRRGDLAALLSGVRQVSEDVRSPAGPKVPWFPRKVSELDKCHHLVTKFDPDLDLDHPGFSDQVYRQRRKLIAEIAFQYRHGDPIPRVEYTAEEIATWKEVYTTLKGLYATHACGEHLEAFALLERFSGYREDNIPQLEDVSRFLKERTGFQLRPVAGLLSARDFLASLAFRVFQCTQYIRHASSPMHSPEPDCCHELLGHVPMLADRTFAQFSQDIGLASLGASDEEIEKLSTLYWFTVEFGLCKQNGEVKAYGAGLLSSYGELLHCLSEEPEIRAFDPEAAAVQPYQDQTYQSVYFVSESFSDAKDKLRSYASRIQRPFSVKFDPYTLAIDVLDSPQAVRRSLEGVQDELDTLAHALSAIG
Sequence of Glucocorticoid receptor (Homo sapiens) (P04150 whole entry): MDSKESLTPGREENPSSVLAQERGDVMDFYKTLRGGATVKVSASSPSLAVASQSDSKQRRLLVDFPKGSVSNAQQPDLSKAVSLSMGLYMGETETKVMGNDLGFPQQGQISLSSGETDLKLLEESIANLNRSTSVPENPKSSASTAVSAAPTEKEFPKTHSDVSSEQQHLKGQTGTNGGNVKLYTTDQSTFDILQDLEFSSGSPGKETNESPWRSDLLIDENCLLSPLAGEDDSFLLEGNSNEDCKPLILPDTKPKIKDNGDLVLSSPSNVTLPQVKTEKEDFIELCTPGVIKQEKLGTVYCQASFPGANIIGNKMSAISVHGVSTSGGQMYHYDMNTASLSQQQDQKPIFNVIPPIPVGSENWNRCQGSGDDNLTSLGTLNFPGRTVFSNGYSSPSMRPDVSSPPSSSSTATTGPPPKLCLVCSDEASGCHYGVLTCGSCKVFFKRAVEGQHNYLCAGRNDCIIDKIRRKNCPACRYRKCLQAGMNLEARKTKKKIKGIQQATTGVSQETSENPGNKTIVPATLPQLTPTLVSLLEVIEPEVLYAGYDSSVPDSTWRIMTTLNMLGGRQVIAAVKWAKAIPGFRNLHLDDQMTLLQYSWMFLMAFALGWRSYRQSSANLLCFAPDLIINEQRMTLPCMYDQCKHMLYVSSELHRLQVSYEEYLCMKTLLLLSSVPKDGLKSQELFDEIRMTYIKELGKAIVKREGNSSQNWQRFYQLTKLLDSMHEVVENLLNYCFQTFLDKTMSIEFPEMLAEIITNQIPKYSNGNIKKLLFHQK
Sequence of Angiotensin-converting enzyme (Homo sapiens) (P12821 whole entry): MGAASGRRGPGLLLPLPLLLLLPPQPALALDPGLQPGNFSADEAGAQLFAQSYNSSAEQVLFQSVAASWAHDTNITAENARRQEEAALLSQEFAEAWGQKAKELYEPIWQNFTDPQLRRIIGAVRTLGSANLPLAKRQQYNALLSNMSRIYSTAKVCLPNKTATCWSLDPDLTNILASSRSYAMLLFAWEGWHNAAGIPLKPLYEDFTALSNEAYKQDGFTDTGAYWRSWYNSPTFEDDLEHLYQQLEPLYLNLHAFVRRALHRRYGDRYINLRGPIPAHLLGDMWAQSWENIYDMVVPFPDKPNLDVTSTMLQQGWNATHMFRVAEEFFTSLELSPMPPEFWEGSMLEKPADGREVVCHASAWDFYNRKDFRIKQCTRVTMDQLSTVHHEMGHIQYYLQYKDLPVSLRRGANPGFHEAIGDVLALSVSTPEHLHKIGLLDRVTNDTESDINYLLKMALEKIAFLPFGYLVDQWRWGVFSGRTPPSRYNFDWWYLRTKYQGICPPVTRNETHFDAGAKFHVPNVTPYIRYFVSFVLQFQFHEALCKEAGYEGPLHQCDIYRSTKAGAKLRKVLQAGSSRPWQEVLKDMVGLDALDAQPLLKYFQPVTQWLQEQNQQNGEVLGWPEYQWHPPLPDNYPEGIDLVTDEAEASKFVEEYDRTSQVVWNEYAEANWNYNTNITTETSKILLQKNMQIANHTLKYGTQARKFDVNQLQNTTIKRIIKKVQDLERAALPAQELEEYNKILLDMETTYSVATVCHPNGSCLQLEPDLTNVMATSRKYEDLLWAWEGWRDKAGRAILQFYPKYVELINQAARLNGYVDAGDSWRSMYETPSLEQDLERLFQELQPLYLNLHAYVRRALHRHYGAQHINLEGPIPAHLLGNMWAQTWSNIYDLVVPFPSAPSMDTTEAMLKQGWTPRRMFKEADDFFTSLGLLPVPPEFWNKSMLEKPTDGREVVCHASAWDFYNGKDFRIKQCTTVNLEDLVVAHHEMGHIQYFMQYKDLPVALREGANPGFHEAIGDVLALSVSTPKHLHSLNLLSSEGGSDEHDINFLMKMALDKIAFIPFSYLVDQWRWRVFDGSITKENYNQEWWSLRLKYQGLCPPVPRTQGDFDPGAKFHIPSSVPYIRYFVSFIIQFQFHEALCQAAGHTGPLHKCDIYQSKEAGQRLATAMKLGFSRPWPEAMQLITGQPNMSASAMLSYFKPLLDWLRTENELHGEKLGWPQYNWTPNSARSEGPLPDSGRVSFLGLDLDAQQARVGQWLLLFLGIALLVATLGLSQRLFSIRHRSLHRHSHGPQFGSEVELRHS

As to `COc1ccc2cc(OCC3(C(=O)O)CN(C(=O)c4ccc(F)cc4)C3)ccc2c1` [PF-04418948], the inhibition was -6% in [1]; -9% in [2]; 14% in data set [3]; 2% in data set [4]; -1% in data set [5]; 9% in data set [6]. The inhibition is 10% in [7]; 16% in data set [8]; -1% in data set [9]; -7% in [10]; 1% in data set [11]; -10% in data set [12]. In addition, the inhibition in [13] is 1%; in data set [35] it was -8.97%; in [36] it was -9.26%; in data set [37], 1.07%. Also, the inhibition at 10 µM against CYP2D6 is recorded as 18% (not active). Also, the residual activity was 98% in [14]; 93% in [15]; 91% in data set [16]; 94% in [17]; 79% in data set [18]; 78% in data set [19]. Also, the residual activity in data set [20] is 96%; in data set [21] it was 96%; in data set [22], 93%; in data set [23] it was 91%; in data set [24], 79%; in [25] it was 71%. In addition, the residual activity in [26] was 78%; in data set [27], 87%; in [28], 83%; in data set [29], 81%; in [30] it was 89%; in data set [31] it was 55%. Also, the results for the residual activity in data set [32], in data set [33] and in data set [34] were 100%, 84% and 97%, respectively.

Turning to `O=C(c1ccc(F)cc1)N1CC(COc2ccc(Br)cc2)(C(=O)O)C1` [PF-04475866], in data set [38], the inhibition is -4.38%.

In general, inhibition refers to the drop in the measured response relative to a control, in per cent.

(Values after ChEMBL document CHEMBL4507298 (2021).)
